Legend:
XIAP-BIR3 = XIAP-BIR3 (Homo sapiens, UniProt P98170); experiment: XIAP BIR3 fluorescence polarization binding assay (competition with AbuRPF-K(5-Fam)-NH2); settings: 5 nM AbuRPF-K(5-Fam)-NH2, 40 nM XIAP-BIR3, pH 7.5; Kd calculated from measured IC50; read-out: KD Range
Description: Binding constants (Kd) were measured using fluorescence polarization as described by Zaneta Nikolovska-Coleska, Renxiao Wang, Xueliang Fang, Hongguang Pan, York Tomita, Peng Li, Peter P. Roller, Krzysztof Krajewski, Naoyuki Saito, Jeanne Stuckey and Shaomeng Wang, in “Development and Optimization of a Binding Assay for the XIAP BIR3 Domain Using Fluorescence Polarization”, Analytical Biochemistry 2004, 332, 261-273). Briefly, test IAP binding compounds at various concentrations for binding measurements were mixed with 5 nM fluorescently labeled peptide (AbuRPF-K(5-Fam)-NH2) and 40 nM of XIAP-BIR3 for 15 minutes at room temperature in 100 μL of 0.1M Potassium Phosphate buffer, pH 7.5 containing 100 μg/ml bovine γ-globulin. Following incubation, the polarization values (mP) were measured on a Victor^2V using a 485 nm excitation filter and a 520 nm emission filter. IC50 values were determined from the plot using nonlinear least-squares analysis using GraphPad Prism. The Kd values of competitive inhibitors were calculated using the equation described by Zaneta Nikolovska-Coleska et al. based upon the measured IC50 values, the Kd value of the probe and XIAP BIR3 complex, and the concentrations of the protein and probe in the competition assay. In various examples of IAP binding or IAP binding cargo molecules ranges for Kd values: Group A: Kd<0.1 μM; Group B: Kd=0.1-1 μM; Group C: Kd=1-10 μM; Group D: Kd>10 μM.

SK-OV-3 cells = experiment: MTT cell growth/survival assay; type: cell-based; settings: Homo sapiens, 72 hrs incubation, drug concentration that results in 50% cell survival
Description: The MTT assay is an example of an assay that has been used for measuring cell growth as previously described (Hansen, M. B., Nielsen, S. E., and Berg, K. J. Immunol. Methods 1989, 119, 203-210) and incorporated herein by reference in its entirety. Briefly, SK-OV-3 cells were seeded in 96-well plates in McCoy's medium containing 10% fetal bovine serum […] (20,000 per well) and incubated overnight at 37° C. Next day, test compounds were added at various concentrations typically from about 10 to about 0.0001 μM and the plates were incubated at 37° C. for an additional 72 hrs. This incubation time was optimal for measuring inhibitory effects of different analogs. 50 microliters of 5 mg/mL MTT reagent to each well was added and the plates were incubated at 37° C. for 3 hours. At the end of incubation period, 50 microliters of DMSO was added to each well to dissolve cells and the optical density (OD) of the wells was measured with a microplate reader (Victor^2 1420, Wallac, Finland) at 535 nm. Cell survival (CS) was calculated by the following equation: CS=(OD treated well/mean OD control wells)×100%
The EC50, defined as the drug concentration that results in 50% CS, was derived by calculating the point where the dose-response curve crosses the 50% CS point using GraphPad Prism.

XIAP-BIR3, sequence (P98170 241-356 limits assumed): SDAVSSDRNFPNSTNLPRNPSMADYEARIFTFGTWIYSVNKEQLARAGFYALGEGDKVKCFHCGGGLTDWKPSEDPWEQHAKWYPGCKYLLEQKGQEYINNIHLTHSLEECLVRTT

Row | SMILES | Kd (XIAP-BIR3) [µM] | EC50 (SK-OV-3 cells) [µM]
1 | CC[C@H](N)C(=O)N[C@H](C(=O)N1C[C@@H](Oc2ccccc2)C[C@H]1Cc1coc2ccccc12)C1CCCCC1 [Entry 5-56] | 0.1 to 1 | –
2 | CNC(C)C(=O)NC(C(=O)N1CCCC1Cc1coc2ccccc12)C(C)C (stereo not shown) [Entry 5-57] | < 0.1 | –
3 | CCC(N)C(=O)NC(C(=O)N1CCCC1Cc1coc2ccccc12)C(C)C (stereo not shown) [Entry 5-58] | 0.1 to 1 | –
4 | CCC(NC(=O)C(C)N)C(=O)N1CCCC1Cc1coc2ccccc12 (stereo not shown) [Entry 5-59] | 0.1 to 1 | –
5 | C#CCOC(C)[C@H](NC(=O)[C@H](C)N)C(=O)N1CCC[C@H]1Cc1coc2ccccc12 (stereo partly shown) [Entry 5-60] | < 0.1 | –
6 | CC(N)C(=O)NC(C(=O)N1CCCC1Cc1coc2ccc(Cl)cc12)C(C)C (stereo not shown) [Entry 5-61] | < 0.1 | –
7 | CNC(C)C(=O)NC(C(=O)N1CCCC1Cc1coc2ccc(Cl)cc12)C(C)C (stereo not shown) [Entry 5-62] | < 0.1 | –
8 | CC(C)C(NC(=O)C(C)(C)N)C(=O)N1CCCC1Cc1coc2ccccc12 (stereo not shown) [Entry 5-64] | > 10 | –
9 | CC(=O)NC(C)C(=O)NC(C(=O)N1CCCC1Cc1coc2ccccc12)C(C)C (stereo not shown) [Entry 5-65] | > 10 | –
10 | CC(NC=O)C(=O)NC(C(=O)N1CCCC1Cc1coc2ccccc12)C(C)C (stereo not shown) [Entry 5-67] | > 10 | –
11 | CCNC(C)C(=O)NC(C(=O)N1CCCC1Cc1coc2ccccc12)C(C)C (stereo not shown) [Entry 5-68] | 1 to 10 | –
12 | CC(NCC1CC1)C(=O)NC(C(=O)N1CCCC1Cc1coc2ccccc12)C(C)C (stereo not shown) [Entry 5-70] | 1 to 10 | –
13 | CC(C)C(NC(=O)C1CCCN1)C(=O)N1CCCC1Cc1coc2ccccc12 (stereo not shown) [Entry 5-74] | > 10 | –
14 | CC(N)C(=O)NC(C(=O)N1CCCC1Cc1coc2ccc(O)cc12)C(C)C (stereo not shown) [Entry 6-75, 2-Amino-N-{1-[2-(5-hydroxy-benzofuran-3-ylmethyl)-pyrrolidine-1-carbonyl]-2-methyl-propyl}-propionamide] | 1 to 10 | –
15 | COc1ccc2occ(CC3CCCN3C(=O)C(NC(=O)C(C)N)C(C)C)c2c1 (stereo not shown) [Entry 7-76, 2-Amino-N-{1-[2-(5-methoxy-benzofuran-3-ylmethyl)-pyrrolidine-1-carbonyl]-2-methyl-propyl}-propionamide] | 1 to 10 | –
16 | CC(N)C(=O)NC(C(=O)N1CCCC1Cc1coc2ccc(OCC3CC3)cc12)C(C)C (stereo not shown) [Entry 7-77] | > 10 | –
17 | CC(N)C(=O)NC(C(=O)N1CCCC1Cc1coc2ccc(-c3ccncc3)cc12)C(C)C (stereo not shown) [Entry 8-78] | 0.1 to 1 | –
18 | CC(N)C(=O)NC(C(=O)N1CCCC1Cc1c(Br)oc2ccccc12)C(C)C (stereo not shown) [Entry 9-80] | 0.1 to 1 | –
19 | CC(C)[C@H](NC(=O)[C@H](C)N)C(=O)N1CCC[C@H]1Cc1c(-c2ccncc2)oc2ccccc12 [Entry 9-81, 2S-Amino-N-{2-methyl-1S-[2S-(2-pyridin-4-yl-benzofuran-3-ylmethyl)-pyrrolidine-1-carbonyl]-propyl}-propionamide] | < 0.1 | –
20 | CC(N)C(=O)NC(C(=O)N1CCCC1Cc1c(-c2cccnc2)oc2ccccc12)C(C)C (stereo not shown) [Entry 9-82] | 0.1 to 1 | –
21 | CC(N)C(=O)NC(C(=O)N1CCCC1Cc1c(-c2nccs2)oc2ccccc12)C(C)C (stereo not shown) [Entry 9-85] | 0.1 to 1 | –
22 | CC(N)C(=O)NC(C(=O)N1CCCC1Cc1c(-c2cnccn2)oc2ccccc12)C(C)C (stereo not shown) [Entry 9-86] | < 0.1 | –
23 | CC(N)C(=O)NC(C(=O)N1CCCC1Cc1c(-c2ccccc2)[nH]c2ccccc12)C(C)C (stereo not shown) [Entry 9-88] | 1 to 10 | –
24 | CCOC(=O)CCc1oc2ccccc2c1CC1CCCN1C(=O)C(NC(=O)C(C)N)C(C)C (stereo not shown) [Entry 10-89, 3-(3-{1-[2-(2-Amino-propionylamino)-3-methyl-butyryl]-pyrrolidin-2-ylmethyl}-benzofuran-2-yl)-propionic acid ethyl ester] | 1 to 10 | –

Row | SMILES | Kd (XIAP-BIR3) [µM] | EC50 (SK-OV-3 cells) [µM]
25 | CC(N)C(=O)NC(C(=O)N1CCCC1Cc1c(CCC(=O)O)oc2ccccc12)C(C)C (stereo not shown) [Entry 10-90] | 0.1 to 1 | –
26 | C[C@H](N)C(=O)N[C@H]1CCCNC(=O)CCc2oc3ccccc3c2C[C@@H]2CCCN2C1=O [Entry 11-91, Ornithine-derived Lactam] | 0.1 to 1 | –
27 | CC(N)C(=O)NC1CCCCNC(=O)CCc2oc3ccccc3c2CC2CCCN2C1=O (stereo not shown) [Entry 12-92] | 1 to 10 | –
28 | C[C@H](N)C(=O)N[C@H]1Cc2ccc(cc2)OCCCc2oc3ccccc3c2C[C@@H]2CCCN2C1=O [Entry 13-93, Tyrosine-derived Cyclic Ether] | 0.1 to 1 | –
29 | CC(=O)n1cc(C[C@@H]2CCCN2C(=O)[C@@H](NC(=O)[C@H](C)N)C(C)C)c2ccccc21 [Entry 14-94, N-{1S-[2S-(1-Acetyl-1H-indol-3-ylmethyl)-pyrrolidine-1-carbonyl]-2-methyl-propyl}-2S-amino-propionamide] | < 0.1 | –
30 | CC(=O)n1cc(CC2CCCN2C(=O)C(NC(=O)CN)C(C)C)c2ccccc21 (stereo not shown) [Entry 14-95] | > 10 | –
31 | CNC(C)C(=O)NC(C(=O)N1CCCC1Cc1cn(C(C)=O)c2cc(F)ccc12)C(C)(C)C (stereo not shown) [Entry 14-96] | 0.1 to 1 | –
32 | CNC(C)C(=O)NC(C(=O)N1CCCC1Cc1cn(C(C)=O)c2cc(F)ccc12)C1CCCCC1 (stereo not shown) [Entry 14-97] | 0.1 to 1 | –
33 | CC(=O)n1cc(CC2CCCN2C(=O)C(NC(=O)C(C)N)C(C)C)c2cccc(C)c21 (stereo not shown) [Entry 14-98] | < 0.1 | –
34 | CC(C)[C@H](NC(=O)[C@H](C)N)C(=O)N1CCC[C@H]1Cc1c[nH]c2ccccc12 [Entry 14-99, 2S-Amino-N-{1S-[2S-(1H-indol-3-ylmethyl)-pyrrolidine-1-carbonyl]-2-methyl-propyl}-propionamide] | 0.1 to 1 | –
35 | Cc1cccc2c(CC3CCCN3C(=O)C(NC(=O)C(C)N)C(C)C)c[nH]c12 (stereo not shown) [Entry 14-100] | < 0.1 | –
36 | CC(NC(=O)OC(C)(C)C)C(=O)NC(C(=O)N1CCCC1Cc1cn(C(=O)OC(C)(C)C)c2ccccc12)C(C)C (stereo not shown) [Entry 14-101] | > 10 | –
37 | CC#CCn1cc(CC2CCCN2C(=O)C(NC(=O)C(C)N)C(C)C)c2ccccc21 (stereo not shown) [Entry 14-102] | 0.1 to 1 | –
38 | C#CCn1cc(CC2CCCN2C(=O)C(NC(=O)C(C)N)C(C)C)c2ccccc21 (stereo not shown) [Entry 14-103] | < 0.1 | –
39 | CNC(C)C(=O)NC(C(=O)N1CCCC1Cc1c[nH]c2cc(F)ccc12)C1CCCCC1 (stereo not shown) [Entry 14-104] | 0.1 to 1 | 0.515 ± 0.093
40 | Cc1ccc(S(=O)(=O)n2cc(C[C@@H]3CCCN3C(=O)[C@@H](NC(=O)[C@H](C)N)C(C)C)c3ccccc32)cc1 [Entry 15-107, 2S-Amino-N-(2-methyl-1S-{2S-[1-(toluene-4-sulfonyl)-1H-indol-3-ylmethyl]-pyrrolidine-1-carbonyl}-propyl)-propionamide] | < 0.1 | –
41 | CNC(C)C(=O)NC(C(=O)N1CCCC1Cc1c(-c2cccs2)[nH]c2cc(F)ccc12)C(C)(C)C (stereo not shown) [Entry 15-108] | < 0.1 | –
42 | CNC(C)C(=O)NC(C(=O)N1CCCC1Cc1cn(CCOCCOCCOC)c2cc(F)ccc12)C1CCCCC1 (stereo not shown) [Entry 16-109, N-{1-Cyclohexyl-2-[2-(6-fluoro-1-{2-[2-(2-methoxy-ethoxy)-ethoxy]-ethyl}-1H-indol-3-ylmethyl)-pyrrolidin-1-yl]-2-oxo-ethyl}-2-methylamino-propionamide] | 0.1 to 1 | 0.06 ± 0.026
43 | CCC(NC)C(=O)NC(C(=O)N1CCCC1Cc1cn(CCOCCOCCOC)c2ccccc12)C1CCCCC1 (stereo not shown) [Entry 16-110] | 0.1 to 1 | –
44 | CNC(C)C(=O)NC(C(=O)N1CCCC1Cc1cn(CCOCCOCCOC)c2ccccc12)C1CCCCC1 (stereo not shown) [Entry 16-111] | 0.1 to 1 | –
45 | CNC(C)C(=O)NC(C(=O)N1CCCC1Cc1c(Br)n(CCOCCOCCO)c2cc(F)ccc12)C(C)(C)C (stereo not shown) [Entry 16-112] | < 0.1 | –
46 | CNC(C)C(=O)NC(C(=O)N1CCCC1Cc1c(Br)n(CCOCCOCCOC)c2cc(F)ccc12)C(C)(C)C (stereo not shown) [Entry 16-113] | < 0.1 | –
47 | CNC(C)C(=O)NC(C(=O)N1CCCC1Cc1c(-c2cccs2)n(CCOCCOCCOC)c2cc(F)ccc12)C(C)(C)C (stereo not shown) [Entry 16-114] | < 0.1 | –
